From patent US6906175B2, “Production of adenine nucleotide translocator (ANT), novel ANT ligands and screening assays therefor” (priority 1998, dated 2005)
“Also recorded” adds a separate entry of the source.

Legend:
[1] = target: T1, T. ni/huANT3 mitochondria (Homo sapiens, UniProt P12236); assay: 125I-compound 24 competition binding (Tube Assay), mitochondria from T. ni cells expressing huANT3
T1 construct: expressed in transfected cells; host or cells: Trichoplusia ni cells infected with recombinant baculovirus (cells prepared by PharMingen); isolated mitochondria
T1 sequence (P12236 1-298): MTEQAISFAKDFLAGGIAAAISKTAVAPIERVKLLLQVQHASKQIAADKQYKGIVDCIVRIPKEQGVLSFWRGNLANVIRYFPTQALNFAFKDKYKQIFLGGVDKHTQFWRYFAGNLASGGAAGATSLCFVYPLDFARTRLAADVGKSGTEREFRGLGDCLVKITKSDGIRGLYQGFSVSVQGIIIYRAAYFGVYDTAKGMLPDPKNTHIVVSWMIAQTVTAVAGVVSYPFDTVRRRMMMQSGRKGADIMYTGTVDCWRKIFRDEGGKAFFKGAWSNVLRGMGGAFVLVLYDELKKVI
Procedure: Atractyloside analogs (Example 6; Table 1; see also Examples 7-9) were also used in pseudo-homologous competition binding assays using T. ni/huANT3 mitochondria or bovine mitochondria. Mitochondria from noninfected T. ni cells, or T. ni cells infected with a baculovirus expressing huANT3 (see Example 3) were prepared as follows: […] cells were prepared by a subcontractor (PharMingen, San Diego, Calif.) as portions of about 250 mg of cells per tube. Each portion was suspended in 1 ml of MSB with protease inhibitors (leupeptin, final concentration 10 ug/ml; pepstatin, final concentration 10 ug/ml; aprotinin, final concentration, 2 ug/ml; phenylmethylsulfonyl fluoride, [PMSF], final concentration, 100 μM; all from Sigma Chemical Co., St. Louis, Mo.). The resuspended cell suspensions were frozen and thawed twice, then homogenized using a rotating teflon-coated probe and a close-fitting glass container (10 passes). The cellular homogenate was centrifuged (3,700 rpm, approximately 1,500×g) at 4° C. for 5 minutes; this supernatant from the first spin was saved. The pellet was washed with about 500 μl of MSB with protease inhibitors, centrifuged (3,800 rpm, approximately 1,600×g) at 4° C. for 5 minutes, and supernatant from this spin was combined with the supernatant from the first spin. […]
The mitochondrial preparations were divided into aliquots (typically, 50μl for T. ni mitochondria or 20 μl for bovine mitochondria) and then either used directly in assays or flash frozen and stored at −80° C. The total protein content in the mitochondrial preparations was determined using the enhanced protocol (30 minutes at 60° C.; see http://www.ruf.rice.edu/˜bioslabs/methods/protein/BCA.html) of the bicinchoninic acid (BCA) assay (available in kit form from Pierce, Rockford, Ill.). […]
Unbound ^125I-compound 24 was removed by aspiration. […] The resultant pellets were aspirated and the radioactivity (dpm) in each was determined by gamma counting.

[2] = target: T2, His-tagged huANT3 (Homo sapiens, UniProt P12236); assay: 125I-compound 24 competition binding to recombinant His-tagged huANT3 immobilized on Ni beads; design: made in house; host or cells: baculovirus-infected Trichoplusia ni cells; mitochondria solubilized and captured on Ni-agarose beads (Qiagen); details: His-tagged huANT3 on Ni-agarose beads, 1 hour at 4° C.; FIG. 19
T2 sequence (P12236 1-298): T1 sequence (P12236 1-298)
Procedure: Competitive binding assays were also performed using recombinant His-tagged huANT3 (see Example 3) immobilized on Ni beads (FIG. 19) instead of mitochondria. To prepare the bead-immobilized huANT3, mitochondria from T. ni cells infected with a baculovirus expressing huANT3 (see Example 3) were solubilized with 0.5% O-glucopyranoside in the presence of 0.5 nM ^125I-compound 24 Ni-agarose beads (Qiagen, Hilden, Germany), and various concentrations of ATR or BKA as unlabeled competitors. After 1 hour at 4° C., the beads were washed and radioactivity that remained associated with the beads was counted.

SMILES: C=C1[C@@H]2CCC3[C@@](CC[C@@H]4[C@H](C(=O)O)C[C@@H](O[C@@H]5O[C@H](CO)[C@@H](OS(=O)(=O)[O-])[C@H](OS(=O)(=O)[O-])[C@H]5OC(=O)CC(C)C)C[C@@]34C)(C2)[C@@H]1O.[K+].[K+] (stereo partly drawn) [ATR, atractyloside]
- affinity relative to the low affinity ANT ligand ADP ([1]; mitochondria from T. ni cells expressing huANT3, 1 μg protein/tube, FIG. 14): about 1,000 fold
- competitive inhibition of 125I-compound 24 binding (in words) ([1]; mitochondria from T. ni cells expressing huANT3, FIGS. 12, 14, 15): slightly higher affinity than compound 24; also recorded: increasingly inhibited by higher concentrations of ATR
- competitive inhibition of 125I-compound 24 binding (in words) [2]: effectively compete with compound 24
